Drawing on US10857119B2, “Composition containing monoacetyldiacylglycerol compound as active ingredient for inhibiting blood cancer or metastasis” (ENZYCHEM LIFESCIENCES CORPORATION, priority 2013, dated 2020), this text covers toxicity and inhibition for one molecule.

The conditions of data set [1]: GLP toxicity test; cited from earlier work.
The subject of another data set is rat IL-4. In words: IL-4 secretion by ELISA in RBL-2H3 cells. Type of data set: cell-based. The conditions noted are these: 10 μg/Ml EC-18. On the procedure:
The cells were treated with 0.1 μg/Ml to 10 μg/Ml EC-18 for 1 hour and antigen was processed. After the incubation for 18 hours at 37° C., the cell was removed to obtain a supernatant. The quantification of rat IL-4 which was present in the cell culture medium of RBL-2H3 cells was made by carrying out enzyme-linked immunosorbent assay (ELISA) according to the protocol indicated by the manufacturer using commercially purchasable monoclonal antibody (mAb) (BD Biosciences).
A general note: An ELISA detects its analyte on a solid surface through an enzyme-linked reagent.

Usually inhibition stands for the change of the read-out against control, counted positive when it falls. A high value points to a strong effect. In the case of `CCCCC/C=C\C/C=C\CCCCCCCC(=O)OC(COC(C)=O)COC(=O)CCCCCCCCCCCCCCC` (centres unmarked) [EC-18, 1-palmitoyl-2-linoleoyl-3-acetylglycerol], the toxicity entry in data set [1] is reported as “no-toxicity”. Also, in the data set with rat IL-4, the inhibition at 10 µg/mL was at least 60%.
